This note sets out measurements from publication PMC8550792, “Evolution of kinase polypharmacology across HSP90 drug discovery” (Cell Chemical Biology, 2021).

Common to all, as to assay: biochemical
What all share (format): biochemical

The target in experiment [1] is T1, 382 unique human kinases (Homo sapiens, UniProt O75385).
T1 construct: purchased Reaction Biology (HotSpot contract assay)
T1 sequence (O75385 1-1050): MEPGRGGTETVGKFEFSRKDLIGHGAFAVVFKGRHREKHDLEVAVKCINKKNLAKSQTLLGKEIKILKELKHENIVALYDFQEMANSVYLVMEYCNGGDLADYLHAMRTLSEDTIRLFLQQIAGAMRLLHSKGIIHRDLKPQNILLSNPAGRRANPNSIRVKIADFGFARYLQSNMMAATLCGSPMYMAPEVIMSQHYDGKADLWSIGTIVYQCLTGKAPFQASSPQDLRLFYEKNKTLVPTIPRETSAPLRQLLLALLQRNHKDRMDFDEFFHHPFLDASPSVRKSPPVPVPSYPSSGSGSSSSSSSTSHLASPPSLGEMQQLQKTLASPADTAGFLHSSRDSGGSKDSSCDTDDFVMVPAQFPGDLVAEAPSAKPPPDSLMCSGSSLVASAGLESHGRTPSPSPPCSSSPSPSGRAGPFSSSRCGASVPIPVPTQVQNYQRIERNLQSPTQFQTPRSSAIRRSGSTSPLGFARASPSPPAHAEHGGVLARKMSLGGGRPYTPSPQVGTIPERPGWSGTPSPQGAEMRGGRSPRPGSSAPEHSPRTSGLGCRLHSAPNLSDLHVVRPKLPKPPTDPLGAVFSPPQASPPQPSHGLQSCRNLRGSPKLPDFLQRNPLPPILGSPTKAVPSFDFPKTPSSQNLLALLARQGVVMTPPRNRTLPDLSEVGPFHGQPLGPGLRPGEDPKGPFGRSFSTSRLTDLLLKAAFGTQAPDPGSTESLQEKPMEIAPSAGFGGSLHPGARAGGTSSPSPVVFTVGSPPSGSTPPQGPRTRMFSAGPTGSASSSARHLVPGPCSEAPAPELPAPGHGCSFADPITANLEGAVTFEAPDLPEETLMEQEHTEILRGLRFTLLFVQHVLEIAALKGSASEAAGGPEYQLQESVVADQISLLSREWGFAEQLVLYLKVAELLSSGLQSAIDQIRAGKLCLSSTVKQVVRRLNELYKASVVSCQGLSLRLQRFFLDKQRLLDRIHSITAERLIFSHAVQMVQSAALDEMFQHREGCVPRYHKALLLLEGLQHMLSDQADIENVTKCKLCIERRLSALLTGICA
The conditions noted are these: ULK1, 10 uM; for remaining activity at 10 µM: read-out: % Enzyme Activity (relative to DMSO controls).

The target in experiment [2] is T2, 382 unique human kinases (Homo sapiens, UniProt P07949, A883F).
T2 construct: purchased Reaction Biology (HotSpot contract assay)
The conditions noted are these: kinase RET (A883F), compound 10 uM; for remaining activity at 10 µM: read-out: % Enzyme Activity (relative to DMSO controls).

The target in experiment [3] is T3, 382 unique human kinases (Homo sapiens, UniProt Q13164).
T3 construct: purchased Reaction Biology (HotSpot contract assay)
The following applies: kinase ERK5/MAPK7, compound 10 uM; for remaining activity at 10 µM: read-out: % Enzyme Activity (relative to DMSO controls).

The target in experiment [4] is T4, 382 unique human kinases (Homo sapiens, UniProt Q16832, T654M).
T4 construct: purchased Reaction Biology (HotSpot contract assay)
T4 sequence (Q16832 22-855 T654M): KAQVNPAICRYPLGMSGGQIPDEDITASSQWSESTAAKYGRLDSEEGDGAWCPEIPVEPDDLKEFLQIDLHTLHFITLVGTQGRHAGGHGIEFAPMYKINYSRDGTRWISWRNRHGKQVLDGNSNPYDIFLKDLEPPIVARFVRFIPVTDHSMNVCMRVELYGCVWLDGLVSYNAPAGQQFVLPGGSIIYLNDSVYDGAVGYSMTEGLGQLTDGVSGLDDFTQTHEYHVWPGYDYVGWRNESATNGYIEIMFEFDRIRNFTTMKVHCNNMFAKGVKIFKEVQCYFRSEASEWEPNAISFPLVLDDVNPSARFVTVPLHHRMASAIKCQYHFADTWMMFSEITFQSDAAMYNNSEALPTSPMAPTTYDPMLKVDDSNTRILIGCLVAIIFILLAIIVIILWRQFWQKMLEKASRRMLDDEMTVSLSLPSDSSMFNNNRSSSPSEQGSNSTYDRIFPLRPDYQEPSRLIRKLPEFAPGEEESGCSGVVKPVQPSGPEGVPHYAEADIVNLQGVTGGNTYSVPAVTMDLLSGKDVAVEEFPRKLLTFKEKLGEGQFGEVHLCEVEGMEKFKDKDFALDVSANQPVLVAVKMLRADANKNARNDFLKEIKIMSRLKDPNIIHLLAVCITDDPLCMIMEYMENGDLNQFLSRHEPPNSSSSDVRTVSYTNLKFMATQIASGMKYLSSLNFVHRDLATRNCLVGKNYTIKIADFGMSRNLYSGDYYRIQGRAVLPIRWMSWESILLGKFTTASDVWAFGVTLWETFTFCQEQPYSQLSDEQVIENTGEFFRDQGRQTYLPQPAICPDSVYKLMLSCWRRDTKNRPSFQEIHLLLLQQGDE
The conditions noted are these: DDR2 (T654M), 10 uM; for remaining activity at 10 µM: read-out: % Enzyme Activity (relative to DMSO controls).

Experiment [5] concerns the target T5, 382 unique human kinases (Homo sapiens, UniProt O14965).
T5 construct: purchased Reaction Biology (HotSpot contract assay)
T5 sequence (O14965 1-403): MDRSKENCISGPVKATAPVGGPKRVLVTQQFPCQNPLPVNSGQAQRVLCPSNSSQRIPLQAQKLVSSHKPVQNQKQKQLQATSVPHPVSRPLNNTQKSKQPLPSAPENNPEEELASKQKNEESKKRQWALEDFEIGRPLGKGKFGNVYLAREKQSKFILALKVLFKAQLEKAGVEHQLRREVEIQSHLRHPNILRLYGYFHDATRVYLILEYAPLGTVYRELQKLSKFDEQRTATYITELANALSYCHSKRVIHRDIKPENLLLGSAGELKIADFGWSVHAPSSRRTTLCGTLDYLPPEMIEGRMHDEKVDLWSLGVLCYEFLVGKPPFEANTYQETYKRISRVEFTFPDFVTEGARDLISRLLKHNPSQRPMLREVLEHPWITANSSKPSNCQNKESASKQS
The conditions noted are these: Aurora A, [ATP] 2.5 µM, compound 10 uM; for remaining activity at 10 µM: read-out: % Enzyme Activity (relative to DMSO controls).

Experiment [6] deals with T6, 382 unique human kinases (Homo sapiens, UniProt P08581, P991S).
T6 construct: purchased Reaction Biology (HotSpot contract assay)
The following applies: c-MET (P991S), 10 uM; for remaining activity at 10 µM: read-out: % Enzyme Activity (relative to DMSO controls).

Experiment [7] concerns the target T7, 382 unique human kinases (Homo sapiens, UniProt P78527).
T7 construct: purchased Reaction Biology (HotSpot contract assay)
The conditions noted are these: DNA-PK, 10 uM; for remaining activity at 10 µM: read-out: % Enzyme Activity (relative to DMSO controls).

The target of experiment [8] is T8, 382 unique human kinases (Homo sapiens, UniProt Q07912).
T8 construct: purchased Reaction Biology (HotSpot contract assay)
The conditions noted are these: ACK1, [ATP] 100 µM, compound 10 uM; for remaining activity at 10 µM: read-out: % Enzyme Activity (relative to DMSO controls).

The target in experiment [9] is T9, 382 unique human kinases (Homo sapiens, UniProt Q5S007, I2020T).
T9 construct: purchased Reaction Biology (HotSpot contract assay)
The conditions noted are these: LRRK2 (I2020T), [ATP] 10 µM, compound 10 uM; for remaining activity at 10 µM: read-out: % Enzyme Activity (relative to DMSO controls).

T9 sequence (Q5S007 whole entry I2020T): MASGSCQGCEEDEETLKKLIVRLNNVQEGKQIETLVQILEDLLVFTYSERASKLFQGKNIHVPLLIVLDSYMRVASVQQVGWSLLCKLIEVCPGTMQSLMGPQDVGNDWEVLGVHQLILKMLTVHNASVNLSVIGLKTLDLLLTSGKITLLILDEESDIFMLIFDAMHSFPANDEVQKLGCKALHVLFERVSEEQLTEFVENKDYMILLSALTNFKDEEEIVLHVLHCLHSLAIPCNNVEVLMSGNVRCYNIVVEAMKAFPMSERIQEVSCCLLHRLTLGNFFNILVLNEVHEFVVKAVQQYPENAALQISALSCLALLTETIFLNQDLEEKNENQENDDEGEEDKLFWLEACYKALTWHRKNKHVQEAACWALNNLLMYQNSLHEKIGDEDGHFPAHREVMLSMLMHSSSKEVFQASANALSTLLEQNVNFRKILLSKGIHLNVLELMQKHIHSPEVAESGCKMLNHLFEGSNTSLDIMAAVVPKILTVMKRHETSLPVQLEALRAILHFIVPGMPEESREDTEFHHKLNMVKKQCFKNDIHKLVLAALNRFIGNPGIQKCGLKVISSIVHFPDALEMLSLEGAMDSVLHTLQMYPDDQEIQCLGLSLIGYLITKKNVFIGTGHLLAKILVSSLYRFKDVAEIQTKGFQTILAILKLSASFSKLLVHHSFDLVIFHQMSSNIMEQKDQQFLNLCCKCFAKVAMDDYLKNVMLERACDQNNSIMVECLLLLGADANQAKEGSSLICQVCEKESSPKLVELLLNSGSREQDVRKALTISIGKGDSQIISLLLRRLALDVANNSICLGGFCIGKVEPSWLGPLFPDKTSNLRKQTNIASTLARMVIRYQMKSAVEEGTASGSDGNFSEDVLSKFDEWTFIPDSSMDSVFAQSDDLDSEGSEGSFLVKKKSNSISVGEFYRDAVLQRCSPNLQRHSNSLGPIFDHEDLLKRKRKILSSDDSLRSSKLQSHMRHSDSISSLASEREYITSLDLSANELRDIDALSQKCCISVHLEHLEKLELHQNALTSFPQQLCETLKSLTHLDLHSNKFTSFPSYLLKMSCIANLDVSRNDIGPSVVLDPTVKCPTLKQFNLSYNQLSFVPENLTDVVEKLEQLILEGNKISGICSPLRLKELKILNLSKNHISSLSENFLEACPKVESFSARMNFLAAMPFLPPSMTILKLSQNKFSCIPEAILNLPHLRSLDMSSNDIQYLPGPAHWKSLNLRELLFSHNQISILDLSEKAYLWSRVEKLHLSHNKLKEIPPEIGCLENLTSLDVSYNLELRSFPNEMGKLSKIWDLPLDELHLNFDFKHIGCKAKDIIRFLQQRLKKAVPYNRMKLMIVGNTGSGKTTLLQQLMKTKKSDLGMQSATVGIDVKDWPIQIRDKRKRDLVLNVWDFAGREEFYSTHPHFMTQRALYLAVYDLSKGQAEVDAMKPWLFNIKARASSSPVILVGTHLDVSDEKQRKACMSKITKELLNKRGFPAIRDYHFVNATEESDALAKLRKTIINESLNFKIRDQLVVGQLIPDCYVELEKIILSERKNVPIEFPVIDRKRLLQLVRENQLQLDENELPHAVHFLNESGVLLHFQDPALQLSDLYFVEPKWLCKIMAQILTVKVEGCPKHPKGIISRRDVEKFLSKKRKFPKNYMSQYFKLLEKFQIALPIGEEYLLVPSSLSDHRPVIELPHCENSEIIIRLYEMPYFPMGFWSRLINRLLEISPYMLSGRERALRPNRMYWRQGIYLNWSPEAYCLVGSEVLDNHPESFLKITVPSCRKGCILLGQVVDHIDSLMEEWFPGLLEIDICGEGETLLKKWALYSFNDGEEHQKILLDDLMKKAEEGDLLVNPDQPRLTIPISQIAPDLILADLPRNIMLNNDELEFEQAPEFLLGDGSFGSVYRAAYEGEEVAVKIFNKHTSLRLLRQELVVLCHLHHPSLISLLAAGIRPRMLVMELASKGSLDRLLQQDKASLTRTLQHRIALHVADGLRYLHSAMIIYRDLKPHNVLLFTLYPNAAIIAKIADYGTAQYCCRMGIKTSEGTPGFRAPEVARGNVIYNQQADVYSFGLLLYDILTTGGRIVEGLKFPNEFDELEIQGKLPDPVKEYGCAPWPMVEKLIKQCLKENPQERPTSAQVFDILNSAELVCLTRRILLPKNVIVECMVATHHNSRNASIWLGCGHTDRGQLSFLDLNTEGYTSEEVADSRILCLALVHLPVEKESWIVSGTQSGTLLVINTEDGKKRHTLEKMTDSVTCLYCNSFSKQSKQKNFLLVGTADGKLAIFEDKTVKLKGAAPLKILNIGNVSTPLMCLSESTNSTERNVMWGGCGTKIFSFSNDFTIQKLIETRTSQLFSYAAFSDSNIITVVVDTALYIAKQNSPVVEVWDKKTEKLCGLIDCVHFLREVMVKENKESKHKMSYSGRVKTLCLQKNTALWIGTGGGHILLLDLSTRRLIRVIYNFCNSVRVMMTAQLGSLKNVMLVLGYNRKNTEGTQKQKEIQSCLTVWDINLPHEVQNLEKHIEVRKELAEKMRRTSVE
T3 sequence (Q13164 whole entry): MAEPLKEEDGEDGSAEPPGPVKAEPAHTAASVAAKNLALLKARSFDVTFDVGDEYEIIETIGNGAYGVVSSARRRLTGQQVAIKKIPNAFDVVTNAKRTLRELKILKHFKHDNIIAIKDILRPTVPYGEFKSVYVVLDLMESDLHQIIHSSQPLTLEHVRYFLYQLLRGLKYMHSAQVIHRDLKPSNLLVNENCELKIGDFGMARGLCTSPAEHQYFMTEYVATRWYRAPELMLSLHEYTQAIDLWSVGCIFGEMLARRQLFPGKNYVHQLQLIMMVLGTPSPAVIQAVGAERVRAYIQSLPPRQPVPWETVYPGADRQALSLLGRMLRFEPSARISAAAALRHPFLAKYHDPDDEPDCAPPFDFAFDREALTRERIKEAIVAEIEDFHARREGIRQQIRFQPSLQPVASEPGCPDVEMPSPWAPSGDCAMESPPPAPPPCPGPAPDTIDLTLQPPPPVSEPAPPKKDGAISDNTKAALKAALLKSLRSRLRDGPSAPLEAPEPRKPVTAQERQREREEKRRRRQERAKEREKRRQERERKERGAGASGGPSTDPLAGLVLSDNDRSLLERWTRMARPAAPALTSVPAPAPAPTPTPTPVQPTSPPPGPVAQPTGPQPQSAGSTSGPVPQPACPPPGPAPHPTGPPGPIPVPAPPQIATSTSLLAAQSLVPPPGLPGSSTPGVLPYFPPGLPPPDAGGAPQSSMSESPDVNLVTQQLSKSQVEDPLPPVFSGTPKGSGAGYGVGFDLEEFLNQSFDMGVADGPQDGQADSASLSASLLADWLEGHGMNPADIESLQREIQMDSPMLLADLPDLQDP
T2 sequence (P07949 29-1114 A883F): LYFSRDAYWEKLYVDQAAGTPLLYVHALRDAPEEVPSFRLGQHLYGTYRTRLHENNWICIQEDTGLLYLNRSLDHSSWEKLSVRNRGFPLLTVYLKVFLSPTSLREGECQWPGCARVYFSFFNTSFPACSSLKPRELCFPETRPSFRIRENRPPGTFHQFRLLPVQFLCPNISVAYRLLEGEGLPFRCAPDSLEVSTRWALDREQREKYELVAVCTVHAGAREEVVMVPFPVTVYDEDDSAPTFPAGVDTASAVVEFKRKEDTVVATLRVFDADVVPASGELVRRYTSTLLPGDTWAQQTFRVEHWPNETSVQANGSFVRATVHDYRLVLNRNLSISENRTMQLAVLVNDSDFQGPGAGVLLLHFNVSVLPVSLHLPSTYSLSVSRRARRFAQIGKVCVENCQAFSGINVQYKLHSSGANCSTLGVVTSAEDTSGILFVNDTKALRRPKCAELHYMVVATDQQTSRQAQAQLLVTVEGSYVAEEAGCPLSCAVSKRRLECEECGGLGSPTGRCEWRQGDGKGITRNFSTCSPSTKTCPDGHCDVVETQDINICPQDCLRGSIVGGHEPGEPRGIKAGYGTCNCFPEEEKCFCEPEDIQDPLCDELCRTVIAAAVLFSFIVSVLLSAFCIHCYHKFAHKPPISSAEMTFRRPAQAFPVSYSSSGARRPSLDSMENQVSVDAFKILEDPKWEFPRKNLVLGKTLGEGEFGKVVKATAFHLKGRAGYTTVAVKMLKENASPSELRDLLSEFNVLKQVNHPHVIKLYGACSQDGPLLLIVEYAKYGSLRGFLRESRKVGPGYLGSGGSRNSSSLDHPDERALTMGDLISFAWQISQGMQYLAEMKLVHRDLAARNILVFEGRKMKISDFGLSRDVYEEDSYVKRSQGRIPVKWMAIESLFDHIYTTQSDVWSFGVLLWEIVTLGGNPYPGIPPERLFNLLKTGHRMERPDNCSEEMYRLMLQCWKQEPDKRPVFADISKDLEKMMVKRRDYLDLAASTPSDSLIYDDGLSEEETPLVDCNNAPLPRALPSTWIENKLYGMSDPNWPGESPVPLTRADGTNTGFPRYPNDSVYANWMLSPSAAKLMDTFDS

With `CC(C)c1cc(-c2n[nH]c(=O)n2-c2ccc3c(ccn3C)c2)c(O)cc1O` [Ganetespib (STA9090)], the remaining activity at 10 µM at 382 unique human kinases [1] came out at 73%; at 382 unique human kinases [2], 83.7%; at 382 unique human kinases [3], 91.3%; on 382 unique human kinases [4], 75%.
In the case of `CC(C)c1cc(-c2n[nH]c(=O)n2-c2ccc3c(ccn3C)c2)c(O)cc1O` [Ganetespib], the remaining activity at 10 µM at 382 unique human kinases [5] came out at 35%; on 382 unique human kinases [6] it was 109%; on 382 unique human kinases [7], 97.8%; at 382 unique human kinases [8] it was 47%; at 382 unique human kinases [9] it was 39%.
As for `CCNC(=O)c1noc(-c2cc(C(C)C)c(O)cc2O)c1-c1ccc(CN2CCOCC2)cc1` [Luminespib (AUY-922)], the “% Enzyme Activity (relative to DMSO controls)” value was 102.69% on 382 unique human kinases [1], 95.34% at 382 unique human kinases [2], 86.48% on 382 unique human kinases [3] and 100.41% on 382 unique human kinases [4]. The remaining activity at 10 µM worked out at 104% at 382 unique human kinases [1], 96.4% on 382 unique human kinases [2], 86.6% on 382 unique human kinases [3] and 102% at 382 unique human kinases [4].
Turning to `CCNC(=O)c1noc(-c2cc(C(C)C)c(O)cc2O)c1-c1ccc(CN2CCOCC2)cc1` [Luminespib], the “% Enzyme Activity (relative to DMSO controls)” value on 382 unique human kinases [5] stood at 89.97%; on 382 unique human kinases [6], 98.52%; on 382 unique human kinases [7], 91.21%; at 382 unique human kinases [8], 88.83%; at 382 unique human kinases [9], 86.48%. For the same molecule, the remaining activity at 10 µM on 382 unique human kinases [5] amounted to 90.7%; on 382 unique human kinases [6], 100%; on 382 unique human kinases [7], 91.6%; on 382 unique human kinases [8], 89.5%; on 382 unique human kinases [9], 86.5%.
